Source: patent publication US12168676B2, “Microbially derived peptides and proteins for immunotherapy” (Genevive, Inc., priority 2019, dated 2024)
“Also recorded” adds a separate entry of the source.

Key:
[1] = test system: Splenocytes isolated from naive male C57BL/6 mice; assay: Stimulation of murine naïve splenocytes (Example 1); type: cell-based, mouse; conditions: 10 μM peptide
Source text: This example describes an initial screening assay to identify Bifidobacterium-derived peptides which can activate effector T cells, specifically, CD4 effector T cells which are characterized in part by a CD4^+ CD25^+ FoxP3^− phenotype and CD8 effector cells which are characterized in part by a CD8^+ CD25^+ FoxP3^− phenotype. Splenocytes isolated from naive male C57BL/6 mice (Taconic, 8-14 weeks of age) were resuspended in complete RPMI (RPMI containing 10% FBS plus 1% penicillin/streptomycin) to a final number of 8×10^5 cells/well in a flat-bottom 96-well plate. Cells were then stimulated with 0.05 μg/ml anti-CD3 antibody in the presence of: each peptide (10 μM in water) or ovalbumin peptide amino acids 323-339 (10 μM in water), water (Th0 min H2O), anti-CD3 antibody alone (Th0 min), or with 1 μg/ml anti-CD3, plus IL-12 (10 ng/ml), plus 5 μg/ml anti-IL-4 antibody (positive control to generate Th1 cells). Cells were incubated at 37° C., 5% CO2 for 48 h. See. FIG. 2A, FIG. 2B, and FIG. 2C.
Levels of activated (Tact) CD4 (FIG. 2A) and CD8 (FIG. 2B) T cells, defined by absence of FoxP3 and high CD25 expression, were determined by multicolor flow cytometry. Levels of T cells were then normalized to levels of the T cells when the splenocytes were treated with the OV323-339 negative control peptide. See Levels of IL-2 (FIG. 2C) and IL-17 (FIG. 2D) in culture supernatants were quantified by Luminex analysis. Levels of Granzyme B expression on gated CD8 FoxP3^− T cells were analyzed by flow cytometry. Bars represent mean±SD. (vs. Th0+H2O) by Kruskall-Wallis with uncorrected Dunn's test.
A dose response study was also performed using the above methods wherein naïve mouse splenocytes were treated with increasing doses of SG-3-0020 (1 μM, 5 μM, or 10 μM). Flow cytometry analysis was done to measure frequency of effector CD8 T cells (CD8^+, CD25^+, FoxP3), granzyme B expression on the effector CD8 T cells, and IL-2 expression.

human T cells [2] = assay: Human T cell activation assay, anti-CD3 stimulated purified T cells (Example 2); type: cell-based
Procedure: PBMCs were obtained from 5 individual human donors. […] Furthermore, incubation of the T cells with SG-3-0020 increased secretion of IL-2 and IFN-γ (FIG. 6B). […] Such activation may enhance immune action against a tumor in vivo with or without a co-therapy.

[3] = test system: CT26 tumor-bearing Balb/c mice; assay: Tumor infiltrating lymphocyte composition/activation in CT26 tumor-bearing Balb/c mice (Examples 3 and 9); type: in vivo, mouse
Procedure: In vivo studies were performed to study the effects of SG-3-0020 administration on, e.g., immune cell activation and tumor size and to test different routes of administration of SG-3-0020 in CT26 tumor-bearing Balb/c mice and its effects on immune modulation. This mouse model is one of the most widely used mouse models for preclinical testing of new immunotherapeutic drugs (Grosso and Jure-Kunkel, 2013, Cancer Immun, 13:5).
Mice were dosed i.v., i.p., p.t. with SG-3-0020 or PBS. For comparison mice were dosed with CD80-Fc or IgG1-Fc i.v. On Day 7, tumor samples were analyzed for tumor infiltrating lymphocyte (TIL) composition/activation by flow cytometry. The protocol used in this experiment is illustrated in FIG. 7A.
BALB/c male mice (n=5-6/group, 8 weeks of age) were inoculated s.c. with CT26 colon carcinoma cells. SG-B was administered in PBS peritumorally daily at 2.5 mg/kg. Control mice were injected with the corresponding volume of PBS. At Day 13 (AH1 staining)) or Day 7 (Ki67, CD25, OX40 staining) excised tumors were washed with PBS, dissected into smaller fragments using scalpels, and further dissociated into single cell suspensions using the Miltenyi Tumor Dissociation Kit and the GentleMACS Octo dissociator. The digested tumors were filtered through pre-separation filters, washed with PBS, and then used for flow cytometry-based analysis. T lymphocytes were gated as CD4^+ or CD8^+ and then analyzed for surface marker expression by FlowJo 10.5.3. p values calculated by Mann-Whitney test.

CT26 mouse model = assay: CT26 mouse model, tumor volume, monotherapy; type: in vivo; conditions: preliminary results, data not shown
[4] = test system: T cells isolated from mouse spleens; assay: Mouse T cell activation, anti-CD3 coated plates (Example 4); type: cell-based; conditions: 10 mcM peptide, anti-CD3 0.1 mcg/mL, 48 hours
Procedure: 96-well culture plates were pre-coated with anti-CD3 (0.1 mcg/mL) in 200 mcL. The plates were incubated overnight at 4° C. The plates were washed with PBS three times before plating the cells (Balb/c splenocytes for T-cell isolation by EasySep™ #19851). The cells were plated at 100-200K/well in final volume of 200 mcL of AIM-V. Peptides (10mcM) or 2 mcg/mL anti-CD28 were added to the cells. The cells were incubated for 48 hours at 37° C.
The incubated cells were used for flow cytometry analysis. SG-3-0020 increased expression of T cell activation markers and proliferation of CD4 and CD8 T cells isolated from mouse spleens (FIG. 11A).
The supernatants were used for MSD analysis. SG-3-0020 increased secretion of effector cytokines by T cells isolated from mouse spleens. (FIG. 11B)

human T cells [5] = assay: Activation markers and cytokine secretion with or without anti-CD3, or with CD3/CD28 activator, T cells (Example 5); type: cell-based
Procedure: (§1) Activation marker expression on T cells and PBMCs in the presence of peptides (10mcM) or anti-CD28 (10 mcg/mL) was determined after 48 hours of incubation, with or without 0.1 mcg/mL anti-CD3. The data were analyzed by flow cytometry (FIG. 13A-D).
Cytokine secretion on T cells in the presence of peptides (10mcM) or anti-CD28 (10 mcg/mL) after 48 h of incubation, with or without 0.1 mcg/mL anti-CD3, was determined. The data were analyzed by MSD (FIG. 14).
Human T cells were activated with ImmunoCult™ Human CD3/CD28 T Cell Activator in the presence of peptides (10mcM) and cytokine secretion was analyzed after 48 hours of incubation by MSD. […] Activation with anti-CD3 on both isolated T cells and PBMCs was required for SG-3-0020-mediated effects.

PBMCs = assay: Activation marker expression with or without anti-CD3, PBMCs (Example 5); type: cell-based, human; conditions: 10 mcM, with or without 0.1 mcg/mL anti-CD3, 48 hours
Procedure: as §1

activated human T cell = assay: NanoString nCounter Human PanCancer Immune profiling of activated T cells (Example 6); type: cell-based; conditions: RNA, T cells of 5 donors, 10 μM vs vehicle
Procedure: T cells were isolated from 5 individual blood donors and activated as described previously. RNA expression levels were determined by the NanoString nCounter Human PanCancer Immune profiling.

human T cells [6] = assay: Phage binding to T cells, titers of eluted phages (Example 7)
Procedure: The binding of SG-3-0020 phages to target cells (naïve T-cell, activated T-cell) was tested.
Biotinylated peptide stock (1 mM) was diluted to 1 uM (×1,000-fold) with 1×PBS+2% BSA. 150 mcL of phages (multivalent display) were mixed with 70 mcL of 1×PBS+2% BSA. The solution was rotated at room temperature for 1 hour.
The cells, either naïve T-cells (about 13×10^6 cells) or activated T-cells (about 16×10^6 cells) were thawed. The cells were then centrifuged at 1,500 for 5 min at 4° C., and the supernatant was aspirated. The cell pellets were washed with 5 mL of 1×PBS+2% BSA by pipetting. This was repeated such that the pellets were centrifuged and washed a total of 3 times.
The cell pellets were resuspended with 1050 mcL of 1×PBS+2% BSA, and 100 mcL of phage (M13 bacteriophage G8P capsid antibody-FITC from antibodies-online Inc (Cat #: ABIN 125966)) were added into a well of 96-well plates (phage binding). 150 mcL of diluted biotinylated peptide were added into a well of 96-well plates (biotinylated peptide binding). 100 mcL of resuspended cells were added into the wells for phage binding and 50 mcL of resuspended cells were added into the wells for biotinylated peptide binding.
The cells were put on the rocker and incubated at 4° C. for 2 hours for binding and then centrifuged at 1,500 for 5 min at 4° C. The supernatant was discarded. […]

[7] = 0.05 μg/ml anti-CD3, 48 h, flow cytometry
[8] = anti-CD3 stimulated purified T cells
[9] = anti-CD3 stimulated purified T cells, 5 donors
[10] = vs activated T cells without SG-3-0020, data not shown
[11] = peri-tumoral injections twice daily (b.i.d.)

SG-3-0020: Bifidobacterium breve-derived peptide, SEQ ID NO:1 MLSTKKTKTHDHYPCGRMRDPGWHDWRACLTHQGIEEDEWPV, chemically synthesized for the Examples (Bifidobacterium breve)
increase: IL-10 secretion (human T cells [2]; [8]) | TNF-α secretion (human T cells [2]; [8]) | CD4+CD25+ T cells (human T cells [2]; [10]) | CD4+ICOS+ T cells (human T cells [2]; [10]) | CD4+OX40+ T cells (human T cells [2]; [10]) | CD8+ICOS+ T cells (human T cells [2]; [10]) | CD8+OX40+ T cells (human T cells [2]; [10]) | CD8CD25+ T cells (human T cells [2]; [10]) | CD8+CD25+ cells in tumor infiltrating lymphocytes ([3]; Day 7, flow cytometry) | CD8+Ki67+ cells in tumor infiltrating lymphocytes ([3]; Day 7, flow cytometry) | CD8+OX40+ cells in tumor infiltrating lymphocytes ([3]; Day 7, flow cytometry) | NK cells in tumor infiltrating lymphocytes ([3]; Day 7, flow cytometry) | NK cell frequency in the TIL compartment [3, 11] | activated CD8+ T cell frequency in the TIL compartment [3, 11] | CTSL expression (activated human T cell) | DUSP6 expression (activated human T cell) | IL-2 expression (activated human T cell) | IL-3 expression (activated human T cell) | IL-9 expression (activated human T cell) | IL-10 expression (activated human T cell) | IL-21 expression (activated human T cell) | IL-24 expression (activated human T cell)
positive effect: Tetramer staining (AH1 epitope) ([3]; Day 13)
decrease: tumor volume (CT26 mouse model) | CD96 expression (activated human T cell) | CXCL10 expression (activated human T cell) | CXCR6 expression (activated human T cell) | GZMK expression (activated human T cell) | IRF1 expression (activated human T cell) | ISG20 expression (activated human T cell) | LY9 expression (activated human T cell) | SLAMF7 expression (activated human T cell) | SMAD3 expression (activated human T cell) | STAT1 expression (activated human T cell) | TCF7 expression (activated human T cell)
more bound: phage titer, binding to the activated T-cells compared to empty phages (human T cells [6]; multivalent display phage, 4° C., 2 hours)
facilitate: IL-2 secretion in culture supernatants ([1]; 48 h, Luminex) | IL-17 secretion in culture supernatants ([1]; 48 h, Luminex)
increase; also recorded: enhance: frequency of activated (Tact) CD4 T cells (CD25+/FoxP3-) [1, 7] | frequency of activated (Tact) CD8 T cells (CD25+/FoxP3-) [1, 7]
binds: binding to human T cells (human T cells [6]; FIG. 17, phage titer)
promote induction: Granzyme B expression in CD8 T cells ([1]; 48 h, flow cytometry)
increased: IFN-γ secretion (human T cells [2]; [8]) | IL-2 secretion (human T cells [2]; [8]) | PD-1 expression on CD4+ cells (human T cells [2]; [9]) | PD-1 expression on CD8+ cells (human T cells [2]; [9]) | secretion of effector cytokines ([4]; MSD) | expression of T cell activation markers ([4]; flow cytometry) | proliferation of CD4 and CD8 T cells ([4]; flow cytometry)
increases: activated CD8+ T cell frequency within the TIL compartment ([3]; mouse, in vivo)
5/5: cytokine-stimulating activity, donors responding (human T cells [2]; purified T cell system in the presence of anti-CD3 antibody)
increases activity: cytokine secretion in combination with anti-CD28 activation (human T cells [5]; ImmunoCult Human CD3/CD28 T Cell Activator, 10 mcM peptide, 48 hours, MSD)
required: dependence of SG-3-0020-mediated effects on activation with anti-CD3, isolated T cells (human T cells [5]; 10 mcM, with or without 0.1 mcg/mL anti-CD3, 48 hours) | dependence of SG-3-0020-mediated effects on activation with anti-CD3, PBMCs (PBMCs)
